In publication PMC4207771, “Identification and Characterization of Novel Renal Sensory Receptors” (PLoS ONE, 2014):
“Also recorded” adds a separate entry of the source. Like-named read-outs stand apart in the source and are kept apart here.

Columns and labels:
Olfr545 = test: dual-luciferase (cAMP/CREB reporter) ligand screen, Olfr545 in HEK293T cells; format: cell-based, mouse; set-up: key to Olfr545 response in dual-luciferase assay: ‘+’ or ‘–‘ in each column indicates if the olfactory receptor responded or had no effect to that specific chemical; -: ‘+’ or ‘–‘ in each column indicates if the olfactory receptor responded or had no effect to that specific chemical; conditions: chemicals tested individually, screened at 500uM (* also at 100uM)
Olfr691 [1] = target: T1, Olfr691 (Mus musculus, UniProt Q8VGW5); test: dual-luciferase (cAMP/CREB reporter) ligand screen, Olfr691 in HEK293T cells; format: cell-based; conditions: for Relative response (% of 4-pentenoate response) at 500 µM: HEK-293T, 4 h, 0.5 mM ligand, normalized to the response of Olfr691 to the strongest ligand; for EC50: Olfr691 co-expressed with RTP1S in HEK293T cells, 10 µM to 7.5 mM; for Olfr691 response in dual-luciferase assay: chemicals tested individually, screened at 500uM (* also at 100uM)
T1 construct: Lucy (N); expressed in transfected cells; host or cells: HEK293T, co-transfected with RTP1S
T1 sequence (Q8VGW5 1-322): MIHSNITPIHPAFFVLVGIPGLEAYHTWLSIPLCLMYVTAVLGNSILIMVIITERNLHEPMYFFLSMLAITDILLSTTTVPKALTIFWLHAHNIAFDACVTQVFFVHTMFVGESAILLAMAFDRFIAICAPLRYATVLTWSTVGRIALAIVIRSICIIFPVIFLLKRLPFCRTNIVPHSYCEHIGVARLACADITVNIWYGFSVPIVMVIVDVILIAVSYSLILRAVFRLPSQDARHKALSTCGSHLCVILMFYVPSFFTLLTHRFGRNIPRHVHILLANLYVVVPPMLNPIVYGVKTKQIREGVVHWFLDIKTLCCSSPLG

Olfr99 = test: dual-luciferase (cAMP/CREB reporter) ligand screen, Olfr99 in HEK293T cells; format: cell-based, mouse; set-up: key: ‘+’ or ‘–‘ in each column indicates if the olfactory receptor responded or had no effect to that specific chemical; -: ‘+’ or ‘–‘ in each column indicates if the olfactory receptor responded or had no effect to that specific chemical; conditions: chemicals tested individually, screened at 500uM (* also at 100uM)
Olfr691 [2] = target: T1, Olfr691; set-up: method as in PMID 15550249; conditions: cited from earlier work
Olfr693 = test: dual-luciferase (cAMP/CREB reporter) ligand screen, Olfr693 in HEK293T cells; format: cell-based, mouse; set-up: key: ‘+’ or ‘–‘ in each column indicates if the olfactory receptor responded or had no effect to that specific chemical; -: ‘+’ or ‘–‘ in each column indicates if the olfactory receptor responded or had no effect to that specific chemical; conditions: chemicals tested individually, screened at 500uM (* also at 100uM)
Olfr31 = target: T2, Olfr31 (Mus musculus, UniProt Q3KPA7); test: dual-luciferase (cAMP/CREB reporter) ligand screen, Olfr31 in HEK293T cells; format: cell-based; conditions: chemicals tested individually, screened at 500uM (* also at 100uM)
T2 construct: expressed in transfected cells; host or cells: HEK293T, co-transfected with RTP1S
T2 sequence (Q3KPA7 1-317): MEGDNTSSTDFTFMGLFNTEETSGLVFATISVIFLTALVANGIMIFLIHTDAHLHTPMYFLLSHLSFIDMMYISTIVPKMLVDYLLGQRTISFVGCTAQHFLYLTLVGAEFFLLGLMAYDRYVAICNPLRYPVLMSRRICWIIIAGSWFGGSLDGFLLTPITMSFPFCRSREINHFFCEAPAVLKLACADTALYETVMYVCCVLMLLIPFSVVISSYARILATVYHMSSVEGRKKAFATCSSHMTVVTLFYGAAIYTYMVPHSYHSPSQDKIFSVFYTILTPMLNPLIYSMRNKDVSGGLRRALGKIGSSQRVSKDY

[3] = set-up: method as in PMID 20304335, PMID 15230715; conditions: patients treated with valproate as an antiepileptic drug; cited from earlier work
[4] = luciferase assay, co-expressed with RTP1S

| EC50 (Olfr691 [1]) [µM] | Olfr691 response in dual-luciferase assay (Olfr691 [1]) | Olfr31 response in dual-luciferase assay (Olfr31) | Olfr691 response (in words) (Olfr691 [1]; luciferase assay, co-expressed with RTP1S, listed as pentanal) | SMILES | Olfr545 response in dual-luciferase assay (Olfr545) | Relative response (% of 4-pentenoate response) at 500 µM (Olfr691 [1]) [%] | Olfr691 response (in words) (Olfr691 [1]; [4]) | Olfr99 response in dual-luciferase assay (Olfr99) | previously reported ligand of Olfr691 (Olfr691 [2]) | Olfr693 response in dual-luciferase assay (Olfr693) | renal adverse effect in patients [3] | previously reported ligand of Olfr691 (Olfr691 [2]; listed as pentanal) | Olfr691 response (in words) (Olfr691 [1]) |
| --- | --- | --- | --- | --- | --- | --- | --- | --- | --- | --- | --- | --- | --- |
| 852 | + | - |  | CCCCC(=O)O [valerate] | - | 98 ± 5.7 | dose dependent manner; also recorded: able to confirm | - | previously reported | - |  |  |  |
| 478 | + |  |  | CCCC(CCC)C(=O)O [valproate, reference compound] | - | 98 ± 5 | highest affinity | - |  | - | develop Fanconi syndrome |  |  |
|  | - | - |  | Fc1ccc(F)c(F)c1 [1,2,4 trifluorobenzene] | - |  |  | - |  | - |  |  |  |
|  | - | - | did not induce a response | CCCCC=O [n-valeraldehyde] | - |  |  | - |  | - |  | previously reported |  |
|  | - | - |  | C=C(C)C1CC=C(C)CC1 (single isomer, unassigned; (+)) [(+)-Limonene] | - |  |  | - |  | - |  |  |  |
|  | - | - |  | COc1ccccc1 [Anisole] | - |  |  | - |  | - |  |  |  |
|  | - | - |  | O=C1CC2CC[C@H]1C2 [norcamphor] | - |  |  | - |  | - |  |  |  |
|  | - | - |  | Cn1c(=O)c2c(ncn2C)n(C)c1=O [caffeine, reference compound] | - |  |  | - |  | - |  |  |  |
|  | - | - |  | CC(C)[C@H](N)C(=O)O [l-valine] | - |  |  | - |  | - |  |  |  |
|  | - | - |  | C=CC(C)(O)CCC=C(C)CCC=C(C)C (mixture of isomers) [nerolidol] | - |  |  | - |  | - |  |  |  |
|  | - | - |  | C=CC(=O)CCCCC [1-Octen-3-one] | - |  |  | - |  | - |  |  |  |
|  | - | - |  | CCCCCC(C)=O [2-heptanone] | - |  |  | - |  | - |  |  |  |

Continued, molecule first:

| SMILES | EC50 (Olfr691 [1]) [µM] | Olfr691 response in dual-luciferase assay (Olfr691 [1]) | Olfr31 response in dual-luciferase assay (Olfr31) | Olfr691 response (in words) (Olfr691 [1]; luciferase assay, co-expressed with RTP1S, listed as pentanal) | Olfr545 response in dual-luciferase assay (Olfr545) | Relative response (% of 4-pentenoate response) at 500 µM (Olfr691 [1]) [%] | Olfr691 response (in words) (Olfr691 [1]; [4]) | Olfr99 response in dual-luciferase assay (Olfr99) | previously reported ligand of Olfr691 (Olfr691 [2]) | Olfr693 response in dual-luciferase assay (Olfr693) | renal adverse effect in patients [3] | previously reported ligand of Olfr691 (Olfr691 [2]; listed as pentanal) | Olfr691 response (in words) (Olfr691 [1]) |
| --- | --- | --- | --- | --- | --- | --- | --- | --- | --- | --- | --- | --- | --- |
| CCCCCCCO [1-Heptanol] |  | - | - |  | - |  |  | - |  | - |  |  |  |
| O=C/C=C/c1ccccc1 [cinnamaldehyde] |  | - | - |  | - |  |  | - |  | - |  |  |  |
| CCCCCC(=O)O [caproate] |  | + | - |  | - | 80 ± 1.4 |  | - |  | - |  |  |  |
| SCCCCS [1,4-butanedithiol] |  | - | - |  | - |  |  | - |  | - |  |  |  |
| C[C@H](CCC(=O)O)[C@H]1CC[C@H]2[C@@H]3CC[C@@H]4C[C@H](O)CC[C@]4(C)[C@H]3C[C@H](O)[C@]12C [Deoxyxholic acid] |  | - | - |  | - |  |  | - |  | - |  |  |  |
| CCC(C)S (centres unmarked) [1-methyl-1-propanethiol] |  | - | - |  | - |  |  | - |  | - |  |  |  |
| OC1CCCCCC1 [cycloheptanol] |  | - | - |  | - |  |  | - |  | - |  |  |  |
| O=C1Cc2ccccc2O1 [2-cumaranon] |  | - | - |  | - |  |  | - |  | - |  |  |  |
| O=C(O)c1ccccc1 [benzoate] |  | + | - |  | - | 34 ± 1 |  | - |  | - |  |  | induced Olfr691 responses |
| CCCCCOC(C)=O [amyl acetate] |  | - | - |  | - |  |  | - |  | - |  |  |  |
| C=CC(C)(CCC=C(C)C)OC(C)=O (centres unmarked) [Linalyl acetate] |  | - | - |  | - |  |  | - |  | - |  |  |  |
| SCCS [1,2-ethanedithiol] |  | - | - |  | - |  |  | - |  | - |  |  |  |
| CCOC(=O)c1ccccc1 [ethyl benzoate] |  | - | - |  | - |  |  | - |  | - |  |  |  |
